Melting point data for 73 compounds are collected here from US7902354B2, “Lapachone compounds and methods of use thereof” (ArQule, Inc., priority 2006, dated 2011).

Compound `O=C1C(=O)c2ccccc2C2=C1SCC1(CCCN(C(=O)Oc3cccc(C(F)(F)F)c3)CC1)O2` (stereo not shown) gave a melting point of 111 to 114 °C.

`O=C1C(=O)c2ccccc2C2=C1SCC1(CCCN(C(=O)Oc3cccc(C(F)(F)F)c3)C1)O2` (stereo not shown): the melting point was 95 to 99 °C.

In turn, `COc1ccc2c(c1)C(=O)C(=O)C1=C2OC2(CCN(C(=O)Oc3cccc(C(F)(F)F)c3)CC2)CS1` showed a melting point of 233 to 234 °C.

In the case of `O=C1C(=O)c2ccc(-c3ccccc3)cc2C2=C1SCC1(CCN(C(=O)Oc3cccc(C(F)(F)F)c3)CC1)O2`, the melting point lay in the range of 188 to 190 °C.

Compound `O=C1C(=O)c2ccccc2C2=C1SCC1(CCN(C3CCN(C(=O)Oc4cccc(C(F)(F)F)c4)CC3)CC1)O2` registered a melting point of 70 to 73 °C.

Compound `O=C1C(=O)c2ccccc2C2=C1SCC1(CCN(CC3CCCO3)CC1)O2` (stereo not shown) showed a melting point of 155 to 159 °C.

Compound `O=C1C(=O)c2ccccc2C2=C1SCC1(CCN(CC3CCCCO3)CC1)O2` (stereo not shown) showed a melting point of 135 to 137 °C.

With `O=C1C(=O)c2ccccc2C2=C1SCC1(CCN(Cc3ccc(F)cc3F)CC1)O2`, the melting point is 104 to 107 °C.

Consider `COc1ccc2c(c1)C1=C(SCC3(CCN(Cc4ccc(F)cc4)CC3)O1)C(=O)C2=O`, for which the melting point was in the range of 196 to 197 °C.

For `O=C1C(=O)c2ccc(-c3ccccc3)cc2C2=C1SCC1(CCN(Cc3ccc(F)cc3)CC1)O2`, the melting point is 197 to 198 °C.

`O=C1C(=O)c2ccccc2C2=C1SCC1(CCN(CCCCc3ccccc3)CC1)O2`: the melting point fell in the range of 145 to 147 °C.

The compound `O=C1C(=O)c2ccccc2C2=C1SCC1(CCN(CCCOc3ccc(Cl)cc3)CC1)O2` gave a melting point of 130 to 132 °C.

In the case of `O=C1C(=O)c2ccccc2C2=C1SCC1(CCN(CCCOc3ccc(F)cc3)CC1)O2`, the melting point was 164 to 165 °C.

As for `CC(C)N1CCC2(CC1)CSC1=C(O2)c2ccccc2C(=O)C1=O`, the melting point was in the range of 197 to 198 °C.

In turn, `COc1ccc2c(c1)C(=O)C(=O)C1=C2OC2(CCN(Cc3ccc(F)cc3)CC2)CS1` had a melting point of 219 to 221 °C.

Take `O=C1C(=O)c2ccc(Br)cc2C2=C1SCC1(CCN(Cc3ccc(F)cc3)CC1)O2`: the melting point is 210 to 211 °C.

On to `O=C1C(=O)c2ccccc2C2=C1SCC1(CCN(C3CCCC3O)CC1)O2` (stereo not shown), for which the melting point lay in the range of 110 to 113 °C.

`CCC(O)CN1CCC2(CC1)CSC1=C(O2)c2ccccc2C(=O)C1=O` (stereo not shown) came in with a melting point of 180 to 182 °C.

For `CC(C)OCC(O)CN1CCC2(CC1)CSC1=C(O2)c2ccccc2C(=O)C1=O` (stereo not shown), the melting point was in the range of 97 to 99 °C.

As to `O=C1C(=O)c2ccccc2C2=C1SCC1(CCN(CC(O)Cc3ccc(Cl)cc3)CC1)O2` (stereo not shown), the melting point lay within 195 to 196 °C.

In turn, `O=C1C(=O)c2ccc(Br)cc2C2=C1SCC1(CCN(C[C@@H](O)Cc3ccccc3)CC1)O2` came in with a melting point of 82 to 83 °C.

In the case of `CC(C)(C)c1ccc(OC[C@@H](O)CN2CCC3(CC2)CSC2=C(O3)c3cc(Br)ccc3C(=O)C2=O)cc1`, the melting point lay in the range of 150 to 152 °C.

The compound `CC(C)(C)c1ccc(OC[C@@H](O)CN2CCC3(CC2)CSC2=C(O3)c3cc(F)ccc3C(=O)C2=O)cc1` yielded a melting point of 114 to 116 °C.

Take `O=C1C(=O)c2ccc(Cl)cc2C2=C1SCC1(CCN(C[C@H](O)Cc3ccccc3)CC1)O2`: the melting point fell in the range of 92 to 93 °C.

The compound `O=C1C(=O)c2ccccc2C2=C1SCC1(CCCN(C[C@H](O)Cc3ccccc3)C1)O2` (stereo partly shown) had a melting point of 65 to 67 °C.

As to `O=C1C(=O)c2ccccc2C2=C1SCC1(CCCN(C[C@@H](O)Cc3ccccc3)C1)O2` (stereo partly shown), the melting point fell in the range of 59 to 60 °C.

The compound `CC(C)(C)c1ccc(OC[C@@H](O)CN2CCC(N3CCC4(CC3)CSC3=C(O4)c4ccccc4C(=O)C3=O)CC2)cc1` yielded a melting point of 190 to 193 °C.

`CC(C)(C)c1ccc(OC[C@H](O)CN2CCC3(CC2)CSC2=C(O3)c3cc(-c4ccccc4)ccc3C(=O)C2=O)cc1`: the melting point lay in the range of 94 to 97 °C.

As for `COc1ccc2c(c1)C(=O)C(=O)C1=C2OC2(CCN(C[C@@H](O)COc3ccc(C(C)(C)C)cc3)CC2)CS1`, the melting point was 188 to 190 °C.

For the compound `COc1ccc2c(c1)C(=O)C(=O)C1=C2OC2(CCN(C[C@@H](O)Cc3ccccc3)CC2)CS1`, the melting point lay in the range of 146 to 147 °C.

Compound `COc1ccc2c(c1)C(=O)C(=O)C1=C2OC2(CCN(C[C@H](O)Cc3ccccc3)CC2)CS1` registered a melting point of 145 to 147 °C.

In the case of `COc1ccc2c(c1)C(=O)C(=O)C1=C2OC2(CCN(C[C@H](O)COc3ccc(Cl)cc3)CC2)CS1`, the melting point lay in the range of 189 to 191 °C.

`COc1ccc2c(c1)C1=C(SCC3(CCN(C[C@H](O)Cc4ccccc4)CC3)O1)C(=O)C2=O` yielded a melting point of 106 °C.

In turn, `COc1ccc2c(c1)C1=C(SCC3(CCN(C[C@@H](O)Cc4ccccc4)CC3)O1)C(=O)C2=O` had a melting point of 110 °C.

In the case of `COc1ccc2c(c1)C1=C(SCC3(CCN(C[C@H](O)COc4ccc(Cl)cc4)CC3)O1)C(=O)C2=O`, the melting point lay in the range of 109 to 110 °C.

`CC(C)(C)c1ccc(OC[C@@H](O)CN2CCC3(CC2)CSC2=C(O3)c3cc(-c4ccccc4)ccc3C(=O)C2=O)cc1` registered a melting point of 151 to 152 °C.

As to `CC(C)(C)c1ccc(OC[C@@H](O)CN2CCC3(CC2)CSC2=C(O3)c3cc(N4CCOCC4)ccc3C(=O)C2=O)cc1`, the melting point was in the range of 107 to 109 °C.

On to `COC(=O)Cc1ccc(OC[C@H](O)CN2CCC3(CC2)CSC2=C(O3)c3ccccc3C(=O)C2=O)cc1`, for which the melting point is 122 to 124 °C.

For the compound `O=C1C(=O)c2ccccc2C2=C1SCC1(CCN(C[C@H](O)COc3ccc4cc(Br)ccc4c3)CC1)O2`, the melting point was in the range of 183 to 184 °C.

`O=C1C(=O)c2ccc(Br)cc2C2=C1SCC1(CCN(C[C@H](O)COc3ccc4cc(Br)ccc4c3)CC1)O2` returned a melting point of 104 to 105 °C.

On to `O=C1C(=O)c2ccc(F)cc2C2=C1SCC1(CCN(C[C@H](O)Cc3ccccc3)CC1)O2`, for which the melting point lay in the range of 76 to 77 °C.

`O=C1C(=O)c2ccccc2C2=C1SCC1(CCN(C[C@H](O)COc3ccc4ccccc4c3)CC1)O2`: the melting point lay in the range of 164 to 167 °C.

`O=C1C(=O)c2ccc(Br)cc2C2=C1SCC1(CCN(C[C@H](O)Cc3ccccc3)CC1)O2` showed a melting point of 82 to 84 °C.

Compound `O=C1C(=O)c2ccc(-c3ccccc3)cc2C2=C1SCC1(CCN(C[C@H](O)COc3ccc(F)cc3)CC1)O2` gave a melting point of 173 to 175 °C.

`O=C1C(=O)c2ccc(-c3ccccc3)cc2C2=C1SCC1(CCN(C[C@H](O)COc3ccc(Cl)cc3)CC1)O2` showed a melting point of 93 to 98 °C.

For `COc1ccc2c(c1)C1=C(SCC3(CCN(C[C@H](O)COc4ccc(C(C)(C)C)cc4)CC3)O1)C(=O)C2=O`, the melting point lay in the range of 153 to 156 °C.

Consider `O=C1C(=O)c2ccccc2C2=C1SCC1(CCN(c3cc(Cl)ncn3)CC1)O2`, for which the melting point lay within 172 to 174 °C.

In the case of `CC(C)(C)OC(=O)N1CCC2(CC1)CSC1=C(O2)c2cc(-c3cccc(C(F)(F)F)c3)ccc2C(=O)C1=O`, the melting point was 231 to 233 °C.

On to `CC(C)(C)OC(=O)N1CCC2(CC1)CSC1=C(O2)c2cc(-c3cccnc3)ccc2C(=O)C1=O`, for which the melting point fell in the range of 217 to 219 °C.

Compound `CC(C)(C)OC(=O)N1CCC2(CC1)CSC1=C(O2)c2cc(-c3ccncc3)ccc2C(=O)C1=O` came in with a melting point of 225 to 227 °C.

As to `CC(C)(C)OC(=O)N1CCC2(CC1)CSC1=C(O2)c2cc(N3CCOCC3)ccc2C(=O)C1=O`, the melting point fell in the range of 243 to 244 °C.

Compound `Cl.O=C1C(=O)c2ccccc2C2=C1SCC1(CCN(C(=O)C3CCNCC3)CC1)O2` returned a melting point of 94 to 100 °C.

For the compound `Cl.O=C1C(=O)c2ccccc2C2=C1SCC1(CCN(C(=O)CC3CCNCC3)CC1)O2`, the melting point fell in the range of 200 to 202 °C.

Turning to `O=C1C(=O)c2ccccc2C2=C1SCC1(CCCCC1)O2`, the melting point fell in the range of 194 to 195 °C.

Regarding `O=C1C(=O)c2ccccc2C2=C1SCC1(CCOCC1)O2`, the melting point is 195 to 197 °C.

`O=C1C(=O)c2ccccc2C2=C1SCC1(CCSCC1)O2` yielded a melting point of 221 to 223 °C.

Compound `CC(C)(C)OC(=O)NC1CCC2(CC1)CSC1=C(O2)c2ccccc2C(=O)C1=O` (stereo not shown) gave a melting point of 224 to 225 °C.

Turning to `Cl.NC1CCC2(CC1)CSC1=C(O2)c2ccccc2C(=O)C1=O` (stereo not shown), the melting point was in the range of 256 to 257 °C.

Regarding `O=C1C(=O)c2ccc(N3CCCCC3)cc2C2=C1SCC1(CCNCC1)O2`, the melting point is 300 °C (dec.).

With `O=C1C(=O)c2ccc(-c3ccncc3)cc2C2=C1SCC1(CCNCC1)O2`, the melting point lay in the range of 223 to 228 °C.

The compound `O=C1C(=O)c2ccc(-c3cccnc3)cc2C2=C1SCC1(CCNCC1)O2` registered a melting point of 213 to 215 °C.

Regarding `O=C1C(=O)c2ccc(-c3cccc(C(F)(F)F)c3)cc2C2=C1SCC1(CCNCC1)O2`, the melting point was in the range of 199 to 203 °C.

`O=C1C(=O)c2ccc(-c3ccc(C(F)(F)F)cc3)cc2C2=C1SCC1(CCNCC1)O2`: the melting point is 190 to 240 °C.

Turning to `O=C1C(=O)c2ccc(-c3ccccc3)cc2C2=C1SCC1(CCNCC1)O2`, the melting point fell in the range of 83 to 87 °C.

Consider `O=C1C(=O)c2ccccc2C2=C1SCC1(CCN(C(=O)c3ccc(-n4cccn4)cc3)CC1)O2`, for which the melting point was in the range of 299 to 300 °C.

Take `O=C1C(=O)c2ccccc2C2=C1SCC1(CCCN(C(=O)c3cccc(Cl)c3)CC1)O2` (stereo not shown): the melting point was in the range of 98 to 100 °C.

For the compound `COc1ccc2c(c1)C(=O)C(=O)C1=C2OC2(CCN(C(=O)c3cccc(Cl)c3)CC2)CS1`, the melting point is 130 °C (dec.).

Compound `O=C1C(=O)c2ccc(-c3ccncc3)cc2C2=C1SCC1(CCN(C(=O)c3cccc(Cl)c3)CC1)O2` showed a melting point of 265 to 267 °C.

Turning to `O=C1C(=O)c2ccc(Cl)cc2C2=C1SCC1(CCN(C(=O)c3cccc(Cl)c3)CC1)O2`, the melting point lay within 125 to 130 °C.

For `O=C1C(=O)c2ccc(Br)cc2C2=C1SCC1(CCN(C(=O)c3cccc(Cl)c3)CC1)O2`, the melting point lay within 135 to 140 °C.

Compound `O=C1C(=O)c2ccccc2C2=C1SCC1(CCN(C(=O)c3nc4ccccc4[nH]3)CC1)O2` came in with a melting point of 266 to 268 °C.

Take `NC(=O)N1CCC2(CC1)CSC1=C(O2)c2ccccc2C(=O)C1=O`: the melting point was 218 to 220 °C.

Regarding `O=C1C(=O)c2ccc(Br)cc2C2=C1SCC1(CCN(C(=O)Oc3cccc(C(F)(F)F)c3)CC1)O2`, the melting point fell in the range of 210 to 211 °C.

By melting point is commonly meant the temperature of the solid-liquid transition.
